Results as given in publication PMC3966885, “F9 Fimbriae of Uropathogenic Escherichia coli Are Expressed at Low Temperature and Recognise Galβ1-3GlcNAc-Containing Glycans” (PLoS ONE, 2014).

Biological target: T1, F9 fimbriae (F9 adhesin) (Escherichia coli, UniProt A0A0H2V7F6)
T1 construct: gene ydeQ; whole F9 fimbriae (six-gene operon c1931-c1936, plasmid pF9, ara promoter) over-expressed on GFP-labelled E. coli K-12 MG1655fim (MS428); mature adhesin 280 aa, N-terminal lectin domain 160 aa
Experiment: glycan array with whole GFP-labelled F9 over-expressing E. coli
Format: cell-based
Conditions: glycan printed on super epoxy slide; PBS with 2 mM MgCl2 and CaCl2, room temperature; also used free at 50 μM as competitor

T1 sequence (A0A0H2V7F6 entry or part of it): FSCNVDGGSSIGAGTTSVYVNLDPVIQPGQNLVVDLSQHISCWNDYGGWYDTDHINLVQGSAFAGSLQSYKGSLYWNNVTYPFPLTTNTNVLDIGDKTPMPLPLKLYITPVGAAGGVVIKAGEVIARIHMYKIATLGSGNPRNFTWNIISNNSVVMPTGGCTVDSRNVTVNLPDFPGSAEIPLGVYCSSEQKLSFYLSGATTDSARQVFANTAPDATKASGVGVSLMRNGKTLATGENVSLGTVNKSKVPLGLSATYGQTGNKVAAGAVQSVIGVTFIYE

Q: Which “glycan array with whole GFP-labelled F9 over-expressing E. coli” value does the source give for `CC(=O)N[C@H]1[C@H](O[C@H]2[C@@H](O)[C@@H](CO)O[C@@H](O[C@H]3[C@H](O)[C@@H](O)C(O)O[C@@H]3CO)[C@@H]2O)O[C@H](CO)[C@@H](O)[C@@H]1O[C@@H]1O[C@H](CO)[C@H](O)[C@H](O)[C@H]1O` (stereo partly shown) [lacto-N-tetraose, Galβ1-3GlcNAcβ1-3Galβ1-4Glc] here?
A: Of the glycans that were bound by F9 fimbriae, lacto-N-tetraose displayed the highest affinity
